Laboratory results as given in PubChem BioAssay (NCI).
“And” between values parts separate entries of the source, which are not always exact repeats. Identical values can stand only once.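 Exposure lasted 48 hours, with cells grown in 96-well plates and compounds tested at five concentrations. At the GI50, growth is halved. TGI marks complete inhibition of growth.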

Columns and labels:
Experiment in all cases: NCI anticancer screen, dose series, 48 h
CAKI-1 renal = test system: CAKI-1 renal
HL-60(TB) leukemia = test system: HL-60(TB) leukemia
IGROV1 ovarian = test system: IGROV1 ovarian
LOX IMVI melanoma = test system: LOX IMVI melanoma
M14 melanoma = test system: M14 melanoma
MDA-MB-231 breast = test system: MDA-MB-231 breast
NCI-H460 lung = test system: NCI-H460 lung
SF-295 CNS = test system: SF-295 CNS
SK-MEL-5 melanoma = test system: SK-MEL-5 melanoma
SW-620 colon = test system: SW-620 colon

SMILES	GI50 (CAKI-1 renal)	TGI (CAKI-1 renal) [µM]	GI50 (HL-60(TB) leukemia)	TGI (HL-60(TB) leukemia) [µM]	GI50 (IGROV1 ovarian)	TGI (IGROV1 ovarian) [µM]	GI50 (LOX IMVI melanoma)	TGI (LOX IMVI melanoma)	GI50 (M14 melanoma)	TGI (M14 melanoma) [µM]	GI50 (MDA-MB-231 breast)	TGI (MDA-MB-231 breast)	GI50 (NCI-H460 lung) [µM]	TGI (NCI-H460 lung) [µM]	GI50 (SF-295 CNS)	TGI (SF-295 CNS) [µM]	GI50 (SK-MEL-5 melanoma)	TGI (SK-MEL-5 melanoma)	GI50 (SW-620 colon)	TGI (SW-620 colon) [µM]
NC(=O)NC(=O)CI	2.32 µM	5.51	1.94 µM	4.02	3.67 µM	11.5	1.08 µM	2.71 µM	5.12 µM	17.4	6.99 µM	19.9 µM	18.5	37.3	23.9 µM	> 57.7	12.9 µM	26.4 µM	1.68 µM	3.57
Nc1nc(Cl)nc2c1ncn2C1O[C@H](CO)[C@@H](O)[C@@H]1F (stereo not given in full)	0.326 µM	–	0.0305 µM	0.14	> 73.5 µM	> 100	0.468 µM	> 100 µM	0.0876 µM	0.292	–	> 100 µM	0.37	> 100	2.87 µM	> 100	0.34 µM	> 100 µM	0.888 µM	> 100
COc1cc(/C=C/C(=O)c2ccc(Nc3nc(Nc4ccc(F)cc4)nc(Nc4ccc(F)cc4)n3)cc2)cc(OC)c1OC	> 100 µM	> 100	1 µM	> 100	3.59 µM	> 100	6.73 µM	> 100 µM	6.55 µM	90.8	15.8 µM	> 100 µM	7.92	> 100	28.8 µM	> 100	3.4 µM	30.4 µM	7.28 µM	> 100
CSC(=S)N/N=C(\C)c1ccccn1	0.267 µM	7.25	< 0.0453 µM	0.18	0.171 µM	17.4	0.206 µM	12.6 µM	0.0997 µM	2.33	0.113 µM	8.98 µM	0.289	1.23	0.255 µM	8.38	0.28 µM	1.04 µM	0.169 µM	17.3
CCOC1NC(=O)Oc2ccccc21 (stereo not given)	–	> 100	–	> 100	–	> 100	–	> 100 µM	–	> 100	–	> 100 µM	–	> 100	–	> 100	–	> 100 µM	–	> 100
O=C1c2cccc3cccc(c23)C(=O)N1CCCCOc1ccc(-c2nc3ccc(N4CCOCC4)cc3[nH]2)cc1	11.6 µM	27	2.29 µM	4.55	11.1 µM	66.9	2.11 µM	4.53 µM	2.88 µM	7.55	3.27 µM	10.5 µM	3.42	16.1	1.63 µM	–	1.6 µM	3.06 µM	3.78 µM	12.3
Cn1c(=O)c(F)c(Nc2ccc(I)cc2F)c2c(=O)n(C[C@@H](O)CO)cnc21	0.649 µM and 0.139 µM	> 90	< 0.01 µM and 0.00141 µM	23.1	0.106 µM and 0.0179 µM	20.8	0.0469 µM and 0.0198 µM	12.5 µM and > 3.38 µM	< 0.01 µM and 0.00175 µM	0.0211	0.0442 µM and 0.0456 µM	8.98 µM and > 1.99 µM	–	> 100	14.1 µM and > 2.11 µM	> 78.3	< 0.0268 µM and 0.0448 µM	17.9 µM and > 3.46 µM	< 0.01 µM and 0.00521 µM	> 64.1
Cc1cc(S(N)(=O)=O)c(S/C(=N\NS(=O)(=O)c2ccc(Cl)cc2)c2ccc(Cl)cc2)cc1Cl	> 100 µM	> 100	40.6 µM	> 100	> 100 µM	> 100	> 100 µM	> 100 µM	> 100 µM	> 100	> 100 µM	> 100 µM	> 100	> 100	> 100 µM	> 100	> 100 µM	> 100 µM	> 100 µM	> 100
Cc1c2c(nn1-c1ccc(S/N=C3\SCC(=O)CN3c3ccccc3)cc1)-c1ccccc1CC2	18.1 µM	> 50	> 50 µM	> 50	8.31 µM	21.4	5.59 µM	34.2 µM	13.4 µM	43.7	15.4 µM	> 50 µM	15.2	> 50	> 50 µM	> 50	8.11 µM	22.3 µM	19.1 µM	> 50
O=C1NC(=NCCc2ccccc2Cl)S/C1=C\c1ccc2ncccc2c1	3.3 µM	> 14.8	2.63 µM	10.3	5.75 µM	> 25	1.57 µM	> 25 µM	6.48 µM	> 25	10.3 µM	> 25 µM	6.34	> 25	2.14 µM	> 11.2	6.92 µM	24.6 µM	1.09 µM	> 25
O=C(/C=N/O)c1c(-c2ccccc2)[nH]c(-c2ccccc2)c1-c1ccccc1	–	48.1	–	> 100	–	28.4	–	41.3 µM	–	73.6	–	28.7 µM	–	41.8	–	34.2	–	32.8 µM	–	48.7
C[n+]1c2ccccc2c(NC2CCNCC2)c2[nH]c3ccccc3c21	–	7.09	1.8 µM	> 22.6	0.363 µM	5.05	1.68 µM	5.52 µM	2.41 µM	13.4	0.762 µM	7.19 µM	0.223	1.53	0.64 µM	8.32	0.488 µM	2.32 µM	1.23 µM	6.73
